Data published in patent publication US20100087486A1, “METHODS FOR USING TGF-B RECEPTOR INHIBITORS OR ACTIVIN-LIKE KINASE (ALK) 5 INHIBITORS A-83-01 AND SB-431542 TO TREAT EYE DISEASE AND WOUND HEALING CONDITIONS” (priority 2008, published 2010).
Where two headings read alike, the source gives them in different places.

How the values were obtained:
TGF-β2-induced proteins [1] = experiment: Immunocytofluorescence microscopy for CTGF, fibronectin and α-SMA; conditions: for staining intensity of TGF-β2-induced proteins (CTGF, α-SMA, fibronectin): samples 5-6 (A-83-01 1.0, 3.0 μM) and 13-14 (SB-431542 3.0, 10.0 μM), 2 ng/ml TGF-β2, 72 hours
Experimental: (§4) In another example, subconjunctival fibroblasts were cultured on 8-well chamber slides. The samples were prepared as in samples 5-6 and 13-16 and incubated for 72 hours. After inhibitor treatment, the fibroblast cultures were fixed with 4% paraformaldehyde or with ice-cold methanol for Alexa Fluor or FITC staining, respectively. After permeabilization, the cells cultures were incubated with polyclonal goat anti-CTGF (1:50, Santa Cruz) followed by Alexa Fluor donkey anti-goat IgG (10 μg/mL, Invitrogen), monoclonal mouse anti-fibronectin (10 μg/mL, Invitrogen) or monoclonal mouse anti-α-SMA (1:400, Sigma) followed by FITC goat anti-mouse IgG (1:100, Jackson ImmunoResearch). The cell cultures were mounted with aqueous mounting media with DAPI and viewed by fluoresence microscopy.
Nuclei were stained with DAPI (blue).

TGF-β2 signaling pathway = experiment: Western blotting for α-SMA and fibronectin in TGF-β2-treated fibroblasts; format: cell-based, rabbit; conditions: incubated 48 to 72 hours; for band intensity for fibronectin and α-SMA compared with samples not treated with the inhibitors: more pronounced with higher concentration; for fibronectin and α-SMA protein expression induced by TGF-B2: rabbit subconjunctival fibroblasts, 2 ng/ml TGF-β2
Experimental: (§1) Sample fibroblasts were obtained from New Zealand white rabbit eyes. The fibroblasts were derived from the subconjunctival tissues isolated from the eyes of the subjects. The third to fifth passages of cells were maintained in 25 cm^2 flasks using 3 ml of medium composed of Eagle's minimal essential medium, 10% fetal bovine serum, 5% calf serum, essential and nonessential aminoacids, and antibiotics. When the cells reached confluence, they were trypsinized and passaged.
(§2) The fibroblast cultures in 6-well plates were pre-treated with 2 ml of medium including ALK-5 inhibitors at various concentrations, 0.03, 0.1, […], 1.0, 3.0, and 10.0 μM, for one hour, and were additionally treated with
(§3) 2 ng/ml of TGF-β2 (R&D Systems, Minneapolis, Minn.) for up to 72 hours.
To test for fibronectin and α-SMA protein expression after the treatment with the respective inhibitors, rabbit subconjunctival fibroblasts, as prepared in samples 1-16, were incubated for 48 to 72 hours. […] Band intensity for both proteins was reduced in A-83-01 and SB-431542 treated samples compared with the bands of those samples not treated with the inhibitors. The reduction in protein levels is more pronounced with a higher concentration of the inhibitors. The blots were also probed for β-actin to control for equal protein loading.
Proteins in the cell lysates (20 μg/lane) were resolved on a 10% sodium dodecyl sulfate (SDS)-polyacrylamide gel. The proteins were transferred to nitrocellulose. After blocking with 1% bovine serum albumin, the membranes were probed with monoclonal mouse anti-α-SMA (1:9,000) followed by HRP-conjugated goat anti-mouse IgG (1:150,000; Jackson), or monoclonal mouse anti-fibronectin (1:1,000) followed by HRP-conjugated goat anti-mouse IgG (1:10,000). Signals were detected by enhanced chemiluminescense.

[2] = tested on: cultured rabbit subconjunctival fibroblasts; experiment: TGF-β2 activity related to wound healing in cultured fibroblasts (overall conclusion); format: cell-based; conditions: for cell toxicity: cell cultures prepared with either inhibitor; for TGF-β2 activity related to wound healing: cultured rabbit subconjunctival fibroblasts
Experimental: as §1, §2, §3
Thus, these inhibitors may be used as ocular anti-scarring agents, especially for glaucoma filtration surgery.

rabbit fibroblasts = experiment: Fibroblast morphology by phase contrast microscopy; conditions: 5 ng/ml TGF-β2; for TGF-β2-induced morphologic change (myofibroblast-like appearance): sample 6 (A-83-01 3.0 μM), sample 14 (SB-431542 10.0 μM)
Experimental: In another example, rabbit fibroblasts were prepared as in samples 6, 14, 15, and 16 except that 5 ng/ml of TGF-β2 was added to the samples instead of 2 ng/ml.

TGF-β2-induced proteins [3] = tested on: TGF-β2-induced proteins
Experimental: as §4
Nuclei were stained with DAPI (blue).

| SMILES | staining intensity of TGF-β2-induced proteins (CTGF, α-SMA, fibronectin) (TGF-β2-induced proteins [1]) | cell death (TGF-β2-induced proteins [1]; samples 5-6 and 13-14, 72 hours) | band intensity for fibronectin and α-SMA compared with samples not treated with the inhibitors (TGF-β2 signaling pathway) | fibronectin and α-SMA protein expression induced by TGF-B2 (TGF-β2 signaling pathway) | cell toxicity [2] | TGF-β2 activity related to wound healing [2] | cell death (rabbit fibroblasts; sample 6 (3.0 μM), sample 14 (10.0 μM)) | TGF-β2-induced morphologic change (myofibroblast-like appearance) (rabbit fibroblasts) | cell death (TGF-β2-induced proteins [3]) |
| --- | --- | --- | --- | --- | --- | --- | --- | --- | --- |
| Cc1cccc(-c2nn(C(=S)Nc3ccccc3)cc2-c2ccnc3ccccc23)n1 [A-83-01] | greatly reduced | No obvious cell death | reduced | effectively inhibited | No obvious cell toxicity | effectively block | No obvious cell death | seemed to be averted |  |
| NC(=O)c1ccc(-c2nc(-c3ccc4c(c3)OCO4)c(-c3ccccn3)[nH]2)cc1 [SB-431542] | greatly reduced |  | reduced | effectively inhibited | No obvious cell toxicity | effectively block |  | seemed to be averted | No obvious cell death |
